# Test system: monoclonal antibody specific against catecholamine metabolites containing 3-methoxy, 4-hydroxy group therein
# Assay: standard curves for fractionation and determination of ℓ-VMA and HVA in competitive EIA
# Assay type: binding, BALB/c mice
# Conditions: pH 8.0, amount of less than 1 µM
# Text: Then, VMA-SBA adsorbed onto the solid phase by the action other than the covalent bond was washed with 0.1 N acetic acid containing 0.1% (w/v) SDS.
row,Compound,reaction in competitive EIA
1,COc1cc(C(O)C(=O)O)ccc1O (centres unmarked) [Vanillylmandelic acid],reacted only
2,"COc1cc(C(O)C(=O)O)ccc1O (single isomer, unassigned) [ℓ-VMA]",did not react
